Laboratory results from PubChem BioAssay AID1552 (Sanford-Burnham Center for Chemical Genomics, 2009).
Activity calls are given as the source filed them. How the calls were made is not given here.

Each compound was assayed against Ubiquitin-conjugating enzyme E2 N (Homo sapiens) (UniProt P61088) (assay: UBE2N binders by NMR, biophysical, purified protein (AID 1552)). Settings: NMR binding to purified UBE2N.
Sequence of Ubiquitin-conjugating enzyme E2 N (Homo sapiens) (P61088 whole entry, looked up): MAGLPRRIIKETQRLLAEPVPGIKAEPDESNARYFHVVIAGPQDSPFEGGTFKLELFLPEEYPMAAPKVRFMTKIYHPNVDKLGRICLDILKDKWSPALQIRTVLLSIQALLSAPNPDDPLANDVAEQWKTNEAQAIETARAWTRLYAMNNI

Compound	Kd
CC1(C)Cc2nc(N3CCOCC3)c(C#N)cc2CO1	> 4 mM (inactive)
O=C(Cc1c(F)cccc1Cl)Nc1cccnc1	> 4 mM (inactive)
Cn1cnnc1SCC(=O)Nc1ccccc1	> 4 mM (inactive)
CC(=O)NC(NC(C)=O)c1ccccc1	> 4 mM (inactive)
NS(=O)(=O)c1ccc(NC(=S)NC2CC2)cc1	> 4 mM (inactive)
Cc1cc(C(=O)Nc2cccnc2)no1	> 4 mM (inactive)
Cc1cc2ncc(C(=O)Nc3ccccc3)c(C)n2n1	> 4 mM (inactive)
CCOc1cccc(C(=O)c2ccc(O)c(O)c2O)c1	> 4 mM (inactive)
COc1cc(C)c2c(c1C=O)Oc1c(c(C)c(O)c3c1C(O)OC3=O)OC2=O (configuration not stated)	> 4 mM (inactive)
COCc1cc(Cl)nc(-c2csc(C)n2)n1	> 4 mM (inactive)
N#CCSc1nnc2ccc3ccccc3n12	> 4 mM (inactive)
CN1CCN(C2CCSC2)CC1 (configuration not stated)	> 4 mM (inactive)
CS(=O)(=O)c1cccc(C(=O)Nc2nccs2)c1	> 4 mM (inactive)
CN1C(=O)c2ccc(C(=O)NC3CCCCC3)cc2C1=O	> 4 mM (inactive)
Nc1nc(SCc2ccc3c(c2)OCCO3)n[nH]1	> 4 mM (inactive)
O=C(O)c1ccc(CSc2ncn[nH]2)cc1	> 4 mM (inactive)
COC(=O)c1scc(C)c1N	> 4 mM (inactive)
Cc1nnc(SCC(=O)N2CCCCC2)s1	> 4 mM (inactive)
CC(=O)O[C@@H]1CC2C(C)(C)CCC(=O)[C@]2(C)C2CC[C@@]3(C)[C@H](c4ccoc4)OC(=O)C4OC43[C@@]21C (some centres not stated)	> 4 mM (inactive)
CC(C)C(=O)NCC(c1ccco1)N1CCOCC1 (configuration not stated)	> 4 mM (inactive)
COCC(=O)Nc1nc2ccc(C)cc2s1	> 4 mM (inactive)
CCN1CCc2c(sc(N)c2C(N)=O)C1	> 4 mM (inactive)
C=CCc1ccc(OC(=O)c2ccccc2)c(OC)c1	> 4 mM (inactive)
Cc1ccc(-c2nnc3sc(-c4ccncc4)nn23)cc1	> 4 mM (inactive)

Compound	Kd
O=C1CCC(C(=O)NCc2cccnc2)N1 (configuration not stated)	> 4 mM (inactive)
[O-][n+]1onc2c1CCc1c-2nn(-c2ccccc2)[n+]1[O-]	> 4 mM (inactive)
CCc1ccccc1NC(=O)c1ccoc1C	> 4 mM (inactive)
c1cncc(Cn2cccc2)c1	> 4 mM (inactive)
Fc1ccc(NC2=NCCS2)cc1Cl	> 4 mM (inactive)
C=CCc1ccc2c(c1)OCO2	> 4 mM (inactive)
Nc1cccnc1Oc1ccc(F)cc1F	> 4 mM (inactive)
CC(=O)OC1CCC2(C)C3CC(=O)C4(C)C(CC5OC6(CCC(C)CO6)[C@@H](C)C54)C3CC[C@H]2C1 (some centres not stated)	> 4 mM (inactive)
Nc1ccc(NC(=O)c2ccco2)c(Cl)c1	> 4 mM (inactive)
Cc1cc(C(=O)Nc2sc(C)c(C)c2C#N)c(C)o1	> 4 mM (inactive)
Cc1cc(C)n(CC(=O)O)n1	> 4 mM (inactive)
Cn1c(CO)nc2ccccc21	> 4 mM (inactive)
COc1ccc(-c2coc3c(OC)c(OC)cc(OC)c3c2=O)cc1	> 4 mM (inactive)
COc1ccc(C(N)=O)cc1NC(C)=O	> 4 mM (inactive)
C=CCSCC=C	> 4 mM (inactive)
COc1cccc(Oc2ccc(N)cn2)c1	> 4 mM (inactive)
Cc1nn(-c2ccccc2)nc1CO	> 4 mM (inactive)
NC12CC3CC(C1)CC(CC(=O)O)(C3)C2	> 4 mM (inactive)
CCn1nnc(NC(=O)c2ccccc2Br)n1	> 4 mM (inactive)
O=C(O)c1ccc2c(c1)OCCO2	> 4 mM (inactive)
CCOC(=O)c1c(C)[nH]c2ccc(O)cc12	> 4 mM (inactive)
O=c1[nH]c(=O)n(-c2ccc(F)cc2)c(O)c1/C=C1/C=CC=N1	> 4 mM (inactive)
Cc1sc2nc[nH]c(=S)c2c1C	> 4 mM (inactive)
CCNS(=O)(=O)c1ccc(OC)c(C)c1	> 4 mM (inactive)

Compound	Kd
OC[C@H]1O[C@@](CO)(O[C@@H]2O[C@H](CO)[C@@H](O)[C@H](O)[C@H]2O)[C@@H](O[C@@H]2O[C@H](CO)[C@@H](O)[C@H](O)[C@H]2O)[C@@H]1O	> 4 mM (inactive)
Fc1cccc(Cl)c1CN1CCCNCC1	> 4 mM (inactive)
CC(C)CCCC(C)C1CCC2C3C[C@@H](O)[C@@]4(O)C[C@@H](O)CC[C@]4(C)C3CC[C@]12C (some centres not stated)	> 4 mM (inactive)
c1cc(CNc2ccc3c(c2)OCCO3)ccn1	> 4 mM (inactive)
CC(=O)O[C@H]1CC[C@@]2(C)C(=CC(=O)C3C4CCC(C(C)CCCC(C)C)[C@@]4(C)CCC32)C1 (some centres not stated)	> 4 mM (inactive)
O=C1CS/C(=N/S(=O)(=O)c2ccccc2)N1	> 4 mM (inactive)
CC(=O)OCC(=O)[C@@]1(O)CCC2C3CC[C@@H]4C[C@H](OC(C)=O)CC[C@]4(C)C3C(=O)C[C@@]21C (some centres not stated)	> 4 mM (inactive)
O=c1[nH]cc(N2CCCCC2)c(=O)[nH]1	> 4 mM (inactive)
O=C1CN(C(=O)CN2CCOCC2)c2ccccc2N1	> 4 mM (inactive)
CC1(C)C2CC[C@]3(C)C(C(=O)C=C4[C@H]5C[C@@](C)(C(=O)O)CC[C@]5(C)CC[C@]43C)[C@@]2(C)CC[C@@H]1O (some centres not stated)	> 4 mM (inactive)
O=C(O)CCCCC1SCC2NC(=O)NC21 (configuration not stated)	> 4 mM (inactive)
CC1(C)C(=O)[C@@H]2O[C@@H]2[C@@]2(C)C1C[C@@H](O)[C@]1(C)C2CC[C@@]2(C)[C@H](c3ccoc3)OC(=O)C3OC321 (some centres not stated)	> 4 mM (inactive)
O=C(O)Cc1n[nH]c(=O)c2ccccc12	> 4 mM (inactive)
Cc1cc(SCCF)n2ncnc2n1	> 4 mM (inactive)
O=[n+]1cc(C2=CC=CCC2)n([O-])c2c1CCCCC2	> 4 mM (inactive)
Cc1occc1C(=O)Nc1nccs1	> 4 mM (inactive)
Cc1nnc(N2CCN(c3ccccc3)CC2)[nH]c1=O	> 4 mM (inactive)
CC1CN(C(=O)c2ccncc2)CC(C)O1 (configuration not stated)	> 4 mM (inactive)
c1cncc(-c2nnc(-c3cccnc3)nn2)c1	> 4 mM (inactive)
CN1CC(=O)Nc2ccc([N+](=O)[O-])cc2C1=O	> 4 mM (inactive)
Nc1ccccc1C(=O)CC(N)C(=O)O (configuration not stated)	> 4 mM (inactive)
O=C(NCc1ccccc1)c1ccc[n+]([O-])c1	> 4 mM (inactive)
Nc1ccc(Cl)nn1	> 4 mM (inactive)
C/C(N)=C/C(=O)N1CCCCC1	> 4 mM (inactive)

Compound	Kd
OCC1CNc2ccccc2O1 (configuration not stated)	> 4 mM (inactive)
COc1ccccc1NC(=O)c1cc[n+]([O-])cc1	> 4 mM (inactive)
Cc1nc2sccn2c1C(=O)O	> 4 mM (inactive)
O=C(O)c1cnn2ccccc12	> 4 mM (inactive)
CC1(C)C(=O)N(O)C(C)(C)C(=O)N1O	> 4 mM (inactive)
COCc1nc(-c2cc(Br)ccc2OC)no1	> 4 mM (inactive)
Nc1ccc(OCc2ccccc2)cc1	> 4 mM (inactive)
O=S(=O)(Nc1cccc2cn[nH]c12)c1ccc(F)cc1	> 4 mM (inactive)
O=C(O)c1ccc(N2CCOCC2)nc1	> 4 mM (inactive)
Cn1cnc2c(=O)[nH]cc([N+](=O)[O-])c21	> 4 mM (inactive)
CCC(CO)NC(=O)c1snnc1C (configuration not stated)	> 4 mM (inactive)
Cc1csc(NC(=O)c2ccoc2C)n1	> 4 mM (inactive)
OCc1cccc2nonc12	> 4 mM (inactive)
Cc1ccc(C(=O)CS(C)(=O)=O)cc1	> 4 mM (inactive)
Cc1n[nH]c(=S)n(/N=C/c2ccccc2)c1=O	> 4 mM (inactive)
Cn1c(CN)nc2ccccc21	> 4 mM (inactive)
Cc1cc(C(=O)N2CCN(c3ccccn3)CC2)c(C)o1	> 4 mM (inactive)
C[n+]1ccc(C(=O)[O-])cc1	> 4 mM (inactive)
COC(=O)c1c(SC)nc(-c2ccccc2)[nH]c1=O	> 4 mM (inactive)
CC(=O)NC(=S)Nc1ccc(N(C)C(C)=O)cc1	> 4 mM (inactive)
c1ccc(NCc2nc(-c3ccccc3)no2)cc1	> 4 mM (inactive)
O=C(O)C1Cc2ccccc2N1 (configuration not stated)	> 4 mM (inactive)
CC(=O)Nc1ccn(-c2ccccc2)n1	> 4 mM (inactive)
C[C@H]1O[C@@H](O[C@H]2[C@@H](O)C[C@H](O[C@H]3[C@@H](O)C[C@H](O[C@H]4CC[C@]5(C)C6C[C@@H](O)[C@]7(C)[C@@H](C8=CC(=O)OC8)CC[C@]7(O)C6CC[C@@H]5C4)O[C@@H]3C)O[C@@H]2C)C[C@H](O)[C@@H]1O (some centres not stated)	> 4 mM (inactive)

Compound	Kd
NC(=O)CC[C@H](N)C(=O)O	> 4 mM (inactive)
COc1cc(C(C)=O)ccc1OC(=O)N1CCOCC1	> 4 mM (inactive)
O=C(CO)N/N=C/c1ccccc1F	> 4 mM (inactive)
Nc1ccc2c(c1)C(=O)OC2	> 4 mM (inactive)
CC(C)NC(=O)c1cc(=O)n(C)c(=O)n1C	> 4 mM (inactive)
CN1CCCn2c1nc1c2c(=O)[nH]c(=O)n1C	> 4 mM (inactive)
Nc1ccccc1-c1nc2ccccc2[nH]1	> 4 mM (inactive)
Nc1ncnc(Cl)c1[N+](=O)[O-]	> 4 mM (inactive)
COc1ccc2c(c1OC)C(=O)O[C@H]2[C@H]1c2cc3c(cc2CCN1C)OCO3	> 4 mM (inactive)
CC(C)n1c(Nn2cnnc2)nc2ccccc21	> 4 mM (inactive)
O=C(N1CCOCC1)N1CCN(c2ccccn2)CC1	> 4 mM (inactive)
Cc1sc(N)c(C(N)=O)c1C	> 4 mM (inactive)
C[C@@H]1C(=O)O[C@H]2[C@H]1CC[C@@]1(C)C=CC(=O)[C@@]3(C)O[C@@]213	> 4 mM (inactive)
COC(=O)CCSCC(=O)Nc1nnc(C)s1	> 4 mM (inactive)
Cn1c(SCC(N)=O)nc2c1c(=O)[nH]c(=O)n2C	> 4 mM (inactive)
O=C1NC(=Nc2ccccc2Cl)SC1(CO)CO	> 4 mM (inactive)
O=C(Nc1ccon1)c1ccccc1Cl	> 4 mM (inactive)
Cc1n[nH]c(C)c1CN	> 4 mM (inactive)
Cn1c(=O)[nH]c(=O)c2c1ncn2CCN1CCCCC1	> 4 mM (inactive)
Cc1ccc(C)n1NC(=O)c1ccco1	> 4 mM (inactive)
CN1C(=O)C2C=CC1C1C(=O)N(c3ccccc3)C(=O)C21 (configuration not stated)	> 4 mM (inactive)
